Data reported in paper PMC11397024, “Strategic Fluorination to Achieve a Potent, Selective, Metabolically Stable, and Orally Bioavailable Inhibitor of CSNK2” (Molecules, 2024).
Where two headings read alike, the source gives them in different places. Marks after values point to notes of the source that are not given here.

Assays:
[1] = Hepatocyte stability, human; format: in vitro ADME; conditions: cryopreserved hepatocytes, over 2 h
Method: Human cryopreserved hepatocytes were supplied by BioIVT (lot QZW, 10 pooled donors, Westbury, NY, USA). Mouse cryopreserved hepatocytes were supplied by BioIVT (lot ZPG, pooled male CD-1). Vials of cryopreserved hepatocytes were removed from storage and thawed in a 37 °C water bath with gentle shaking, and then the contents were poured into a 50 mL thawing medium conical tube. Vials were centrifuged at 100× g for 10 min at room temperature. The thawing medium was aspirated, and hepatocytes were resuspended with a serum-free incubation medium to yield ~1.5 × 10^6 cells/mL. Cell viability and density were counted using AO/PI fluorescence staining, and then cells were diluted with a serum-free incubation medium to a working cell density of 0.5 × 10^6 viable cells/mL. Aliquots of 198 μL of hepatocytes were dispensed into each well of a 96-well noncoated plate. The plate was placed in an incubator for approximately 10 min. […] Peak areas were determined from extracted ion chromatograms, and the slope value, k, was determined by linear regression of the natural logarithm of the remaining percentage of the parent drug vs. incubation time curve. The intrinsic clearance (CLint in μL/min/10^6 cells) was calculated using the relationship CLint = kV/N, where V is the incubation volume (0.2 mL) and N is the number of hepatocytes per well (0.1 × 10^6 cells). […]

[2] = cited from earlier work
[3] = cited from earlier work; remark: listed apart in the source
[4] = cited from earlier work; remark: listed apart in the source
SARS-CoV-2 = SARS-CoV-2 assay in A549-ACE2 cells; format: cell-based; conditions: Severe acute respiratory syndrome coronavirus 2, triplicate, read-out: SARS-CoV-2 pIC50 (converted)
CSNK2A2 = target: T1, CSNK2A2 (Homo sapiens, UniProt P19784); design: method as in PMID 37901516; conditions: NanoBRET; cited from earlier work
T1 construct: expressed in transfected cells; host or cells: HEK293

[5] = CellTiter-Glo cytotoxicity assay; format: cell-based, Human; conditions: human, A549-ACE2 cells, 48 h, CellTiter-Glo, quadruplicate
Method: A549-ACE2 cells were maintained in low-glucose DMEM (Gibco, Waltham, MA, USA) supplemented with 10% FBS, 1% NEAA, and 1% L-glutamine. No antibiotics were used. Cells were plated at 2000 cells/well in a 384-well plate (Costar, Glendale, AZ, USA) and incubated overnight (37 °C, 5% CO2) before adding the compound. Compounds were added in quadruplicate and incubated for 48 h. DMSO percentage was constant across all concentrations of the compound. Cell viability was measured using CellTiter-Glo2 (Promega, Madison, WI, USA) and the luminescence signal was read on a GloMax plate reader (Promega, Madison, WI, USA). Dose–response analysis was performed using GraphPad Prism.

CSNK2A1 = target: T2, CSNK2A1 (Homo sapiens, UniProt P68400); design: method as in PMID 37901516; conditions: NanoBRET; cited from earlier work
T2 construct: expressed in transfected cells; host or cells: HEK293

[6] = tested on: mouse hepatitis virus (MHV); design: method as in PMID 37901516; conditions: cited from earlier work
[7] = Liver microsomal stability, human; format: in vitro ADME; conditions: pH 7.4, human liver microsomes, five time points over 1 h, read-out: HLM CLint
[8] = tested on: mouse hepatitis virus (MHV); assay: MHV assay (MHV-nLuc in DBT cells); conditions: read-out: IC50 for the assay; MHV-nLuc, DBT cells; positive control
Method: DBT cells were cultured at 37 °C in Dulbecco’s modified Eagle medium (DMEM; Sigma-Aldrich, St. Louis, MO, USA) supplemented with 10% fetal bovine serum (FBS; Avantor, Randor, PA, USA) and penicillin and streptomycin (Sigma-Aldrich, St. Louis, MO, USA). DBT cells were plated in 96-well plates to be 80% confluent at the start of the assay. Test compounds or positive control EIDD-1931 were diluted to 15 μM in DMEM. Serial 4-fold dilutions were made in DMEM, providing a concentration range of 15–0.22 μM. Media were aspirated from the DBT cells, and 100 μL of the diluted test compounds was added to the cells for 1 h at 37 °C. After 1 h, MHV-nLuc5 was added at an MOI of 0.1 in 50 μL of DMEM so that the final concentration of the first dilution of the compound was 10 μM (T = 0). After 10 h, the media were aspirated, and the cells were washed with PBS and lysed with passive lysis 5X buffer (Promega, Madison, WI, USA) for 20 min at room temperature. Relative light units (RLUs) were measured using a luminometer (Promega; GloMax, Madison, WI, USA). Triplicate data were analyzed in GraphPad Prism version 9.4.1 for macOS to generate IC50 values.

[9] = cited from earlier work; remark: listed apart in the source

T1 sequence (P19784 whole entry): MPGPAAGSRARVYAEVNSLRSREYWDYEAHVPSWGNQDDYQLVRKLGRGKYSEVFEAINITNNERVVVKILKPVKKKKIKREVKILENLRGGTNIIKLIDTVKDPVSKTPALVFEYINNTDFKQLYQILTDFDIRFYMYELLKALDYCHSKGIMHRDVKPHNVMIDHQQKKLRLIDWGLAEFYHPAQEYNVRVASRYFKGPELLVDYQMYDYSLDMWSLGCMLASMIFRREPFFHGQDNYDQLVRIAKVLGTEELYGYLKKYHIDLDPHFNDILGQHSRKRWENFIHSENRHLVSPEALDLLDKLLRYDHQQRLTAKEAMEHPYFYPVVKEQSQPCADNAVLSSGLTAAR
T2 sequence (P68400 whole entry): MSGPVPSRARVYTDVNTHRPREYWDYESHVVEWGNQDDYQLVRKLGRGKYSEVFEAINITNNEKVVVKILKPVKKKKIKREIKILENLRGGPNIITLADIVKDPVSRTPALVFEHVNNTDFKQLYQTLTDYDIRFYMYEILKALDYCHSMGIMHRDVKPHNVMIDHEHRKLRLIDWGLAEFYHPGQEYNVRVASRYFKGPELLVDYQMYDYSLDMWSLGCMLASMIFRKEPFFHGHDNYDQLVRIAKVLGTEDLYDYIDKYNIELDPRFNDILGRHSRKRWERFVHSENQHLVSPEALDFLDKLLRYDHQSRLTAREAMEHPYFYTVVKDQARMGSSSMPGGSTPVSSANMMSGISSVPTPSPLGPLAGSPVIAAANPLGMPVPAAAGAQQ

**Q.** With `CCC(=O)Nc1cc(Nc2cc(NC3CC3)n3ncc(C#N)c3n2)ccc1N1CCC[C@H](NC)C1` [Compound 1] as the molecule, how does the CLint scaled at 1 μM [1] read?
**A.** 4.1 mL/min/kg

**Q.** What about the “Kinetic Solubility” value ([2]; pH 7.4) of the same molecule?
**A.** 71 ^f μg/mL

**Q.** What about the AUClast ([3]; mouse plasma, 10 mg/kg i.p.) of the same molecule?
**A.** 7.01 µM·h

**Q.** And the Cmax ([3]; mouse plasma, 10 mg/kg i.p.)?
**A.** 4.71 µM

**Q.** And the Tmax ([3]; mouse plasma, 10 mg/kg i.p.)?
**A.** 0.25 h

**Q.** What about the t1/2 ([3]; mouse, in vivo, ip, 10 mg/kg) of the same molecule?
**A.** 1.2 h

**Q.** What about the AUClast ([3]; mouse, in vivo, iv, 1 mg/kg) of the same molecule?
**A.** 1.4 µM·h

**Q.** And the Vdss ([3]; mouse, in vivo, iv, 1 mg/kg)?
**A.** 2.6 L/kg

**Q.** And the t1/2 ([3]; mouse, in vivo, iv, 1 mg/kg)?
**A.** 1.3 h

**Q.** What about the “Mouse Hepatocytes CLint” value [4] of the same molecule?
**A.** 143 mL/min/kg

**Q.** What about the IC50 (SARS-CoV-2) of the same molecule?
**A.** 631 nM

**Q.** What about the “CSNK2A2 pIC50” value (CSNK2A2) of the same molecule?
**A.** 7.7 ^f

**Q.** What about the viability at 48 h, 0.1 µM ([5]; 0.1 μM) of the same molecule?
**A.** 100%

**Q.** What about the viability at 48 h, 1 µM ([5]; 1.0 μM) of the same molecule?
**A.** 79%

**Q.** And the “CSNK2A1 pIC50” value (CSNK2A1)?
**A.** 7.6 ^f

**Q.** And the “MHV pIC50” value [6]?
**A.** 6.9 ^f

**Q.** And the CLint scaled at 5 μM [7]?
**A.** 12.5 mL/min/kg

**Q.** For `O=c1nc(NO)ccn1[C@@H]1O[C@H](CO)[C@@H](O)[C@H]1O` [EIDD-1931, reference compound], which IC50 [8] is on record?
**A.** 1200 nM

**Q.** What does the source list for `CCC(=O)Nc1cc(Nc2cc(NC3CC3)n3ncc(C#N)c3n2)ccc1C` [SGC-CK2-1, reference compound]?
**A.** solubility [2]: poor solubility; stability in mouse liver microsomes [9]: poor stability in mouse liver microsomes
